# Patent US12497610B2, “Functional genomics using CRISPR-CAS systems for saturating mutagenesis of non-coding elements, compositions, methods, libraries and applications thereof” (THE BROAD INSTITUTE, INC., priority 2015, dated 2025)
# Test system: human BCL11A erythroid enhancer
# Test: Tiled pooled CRISPR-Cas9 screen for in situ functional mapping of the human BCL11A erythroid enhancer (HbF-high/HbF-low sort, sgRNA deep sequencing)
# Assay type: cell-based
# Settings: for Enrichment Score: HbF enrichment, human library NGG and NGG RC sgRNAs filtered for enrichment score >0.259; for Dropout Score: human library sgRNAs that produced HbF enrichment over 0.259
# From the text: Every 20-mer sequence upstream of an NGG or NAG PAM sequence on the sense or anti-sense strand was identified for both the human and mouse orthologous +55, +58, and +62 DNase hypersensitive site (DHS) as well as BCL11A/BCL11a exon 2. Relative to the human hg 19 reference genome, a reference was used with the following substitutions to approximate a common low-HbF associated haplotype: rs1427407-G, rs1896293-T, rs6706648-T, rs6738440-G, rs7606173-C. Each of the sgRNA oligos were synthesized as previously described (37,41,64) and cloned using a Gibson Assembly master mix (New England Biolabs) into lentiGuide-Puro (Addgene plasmid ID 52963) BsmBI digested, PCR purified, and dephosphorylated. Gibson Assembly products were transformed to electrocompetent E. cloni cells (Lucigen). Sufficient colonies were isolated to ensure 90X library coverage for both human and mouse libraries. Plasmid libraries were deep sequenced (described below) to confirm representation.
# Tiled Pooled CRISPR-Cas9 Screen for In Situ Functional Mapping the Human BCL11A Erythroid Enhancer.
# HUDEP clone 2 (HUDEP-2) was utilized as previously described by from Nakamura and colleagues (49). HUDEP-2 cells were expanded in StemSpan SFEM (Stem Cell Technologies) supplemented with 10^−6 M dexamethasone (Sigma), 100 ng/mL human stem cell factor (SCF) (R&D), 3 IU/mL erythropoietin (Amgen), 1% L-glutamine (Life Technologies), and 2% penicillin/streptomycin (Life Technologies). 1 μg/mL doxycycline (Sigma) was included in the culture to induce expression of the human papilloma virus type 16 E6/E7 genes (49). HUDEP-2 cells were differentiated in Iscove's Modified Dulbecco's Medium (IMDM) supplemented with 330 μg/mL halo-transferrin (Sigma), 10 μg/mL recombinant human insulin (Sigma), 2 IU/mL heparin (Sigma), 5% human solvent detergent pooled plasma AB (Rhode Island Blood Center), 3 IU/mL erythropoietin (Amgen), 100 ng/mL human stem cell factor (SCF) (R&D), 1 μg/mL doxycycline (Sigma), 1% L-glutamine (Life Technologies), and 2% penicillin/streptomycin (Life Technologies).
# HUDEP-2 cells with stable Cas9 expression were transduced at low multiplicity with the human sgRNA library lentivirus pool while in expansion medium. […] Cell numbers were maintained throughout the experiment at levels adequate to exceed 1000× representation of the library. 10 μg/mL blasticidin (Sigma) and 1 μg/mL puromycin (Sigma) were added 24 hours after transduction to select for lentiviral library integrants in cells with Cas9. Cells were cultured in expansion media for one week followed by differentiation media for an additional week.
# Intracellular staining was performed by fixing cells with 0.05% glutaraldehyde (grade II) (Sigma) for 10 minutes at room temperature. Cells were centrifuged for 5 minutes at 350 g and then resuspended in 0.1% Triton-X100 (Life Technologies) for 5 minutes at room temperature for permeabilization. Triton X-100 was diluted with phosphate buffered saline (PBS) and then centrifuged at 350 g for 15 minutes. Cells were stained with anti-human antibodies for HbF (clone HbF-1 with FITC or APC conjugation; Life Technologies) and B-hemoglobin antibody (clone 37-8 with PerCP-Cy5 or PE conjugation; Santa Cruz) for 20 minutes in the dark. Cells were washed to remove unbound antibody prior to FACS analysis. 0.2 μg HbF and 2 μg of HbA CB-hemoglobin) antibodies were used per 5 million cells. Control cells exposed to a nontargeting sgRNA sample and BCL11A exon 2 were used as negative and positive controls respectively to establish flow cytometry conditions. Populations of cells with the top and bottom 10% of expression of HbF were sorted by FACS.
# After sorting the HbF-high and HbF-low pools, library preparation and deep sequencing was performed as previously described (37). Briefly, genomic DNA was extracted using the Qiagen Blood and Tissue kit. […]
substance,measurement,value
"BCL_01990_H_exon2 (guide GATAAACAATCGTCATCCTCNGGRC; listed as DNA, chemistry not given here)",Enrichment Score,0.8422
same,Dropout Score,−0.6128
"BCL_01991_H_exon2 (guide CGTCATCCTCTGGCGTGACCNGGRC; listed as DNA, chemistry not given here)",Enrichment Score,0.8523
same,Dropout Score,−0.7166
"BCL_00062_H_D55 (guide AGCAGCCCTGGGCACAGAAGNGG; listed as DNA, chemistry not given here)",Enrichment Score,0.3251
same,Dropout Score,−0.6401
"BCL_01618_H_D58 (guide TTGCTTTTATCACAGGCTCCNGGRC; listed as DNA, chemistry not given here)",Enrichment Score,0.8561
same,Dropout Score,−0.8127
"BCL_00131_H_D58 (guide TGGGGAGAGAAGAGTGGAAANGG; listed as DNA, chemistry not given here)",Enrichment Score,0.2698
same,Dropout Score,−0.3654
"BCL_00245_H_D62 (guide GGAGATCGCTTGAACCTGGGNGG; listed as DNA, chemistry not given here)",Enrichment Score,0.4762
same,Dropout Score,−5.067
"BCL_01623_H_D58 (guide AAGGGTTTGGCCTCTGATTANGGRC; listed as DNA, chemistry not given here)",Enrichment Score,1.285
same,Dropout Score,−0.2669
"BCL_00227_H_D62 (guide ATCCCAGCACTTTGGGAGGCNGG; listed as DNA, chemistry not given here)",Enrichment Score,0.79
same,Dropout Score,−8.099
"BCL_01788_H_D62 (guide GAGATTTACTCTTGTTGCCCNGGRC; listed as DNA, chemistry not given here)",Enrichment Score,1.29
same,Dropout Score,−5.463
"BCL_00250_H_exon2 (guide GAACCAGACCACGGCCCGTTNGG; listed as DNA, chemistry not given here)",Enrichment Score,1.581
same,Dropout Score,−0.6847
"BCL_01617_H_D58 (guide CTAACAGTTGCTTTTATCACNGGRC; listed as DNA, chemistry not given here)",Enrichment Score,2.495
same,Dropout Score,−0.7193
"BCL_00264_H_exon2 (guide AAAAGCATCCAATCCCGTGGNGG; listed as DNA, chemistry not given here)",Enrichment Score,0.5578
same,Dropout Score,−1.376
"BCL_00254_H_exon2 (guide GATCATGACCTCCTCACCTGNGG; listed as DNA, chemistry not given here)",Enrichment Score,2.198
same,Dropout Score,−2.256
"BCL_01621_H_D58 (guide CACAGGCTCCAGGAAGGGTTNGGRC; listed as DNA, chemistry not given here)",Enrichment Score,2.319
same,Dropout Score,−0.6005
"BCL_00160_H_D58 (guide TCAGGGGGAGGCAAGTCAGTNGG; listed as DNA, chemistry not given here)",Enrichment Score,0.3294
same,Dropout Score,−0.318
"BCL_00249_H_exon2 (guide TGAACCAGACCACGGCCCGTNGG; listed as DNA, chemistry not given here)",Enrichment Score,1.175
same,Dropout Score,−0.8221
"BCL_00255_H_exon2 (guide ATCATGACCTCCTCACCTGTNGG; listed as DNA, chemistry not given here)",Enrichment Score,1.703
same,Dropout Score,−2.497
"BCL_01994_H_exon2 (guide GATGCCAACCTCCACGGGATNGGRC; listed as DNA, chemistry not given here)",Enrichment Score,1.11
same,Dropout Score,−0.9904
"BCL_00258_H_exon2 (guide GCCAGATGAACTTCCCATTGNGG; listed as DNA, chemistry not given here)",Enrichment Score,1.593
same,Dropout Score,−1.899
"BCL_02004_H_exon2 (guide CCCCCAATGGGAAGTTCATCNGGRC; listed as DNA, chemistry not given here)",Enrichment Score,0.4685
same,Dropout Score,−0.1189
"BCL_01829_H_D62 (guide TGTGGGGTGGCTGTTTAAAGNGGRC; listed as DNA, chemistry not given here)",Enrichment Score,0.496
same,Dropout Score,−0.1469
"BCL_02010_H_exon2 (guide CCCCTTCTGGAGCTCCCAACNGGRC; listed as DNA, chemistry not given here)",Enrichment Score,0.5003
same,Dropout Score,−0.1463
"BCL_01483_H_D55 (guide GTCATCCTCGGCCAATGAAGNGGRC; listed as DNA, chemistry not given here)",Enrichment Score,0.4318
same,Dropout Score,−0.4056
"BCL_01631_H_D58 (guide ATTAGGGTGGGGGCGTGGGTNGGRC; listed as DNA, chemistry not given here)",Enrichment Score,0.4098
same,Dropout Score,−0.1615
"BCL_00088_H_D55 (guide GCATCATCCTGGTACCAGGANGG; listed as DNA, chemistry not given here)",Enrichment Score,0.4386
same,Dropout Score,−0.3713
"BCL_01625_H_D58 (guide GTTTGGCCTCTGATTAGGGTNGGRC; listed as DNA, chemistry not given here)",Enrichment Score,0.3718
same,Dropout Score,−0.9451
"BCL_00185_H_D58 (guide GCAAACGGCCACCGATGGAGNGG; listed as DNA, chemistry not given here)",Enrichment Score,0.3196
same,Dropout Score,−0.516
"BCL_00057_H_D55 (guide GGAAGGGCCTCTATGTAGACNGG; listed as DNA, chemistry not given here)",Enrichment Score,0.46
same,Dropout Score,−0.4451
"BCL_00058_H_D55 (guide CCTCTATGTAGACGGGTGTGNGG; listed as DNA, chemistry not given here)",Enrichment Score,0.3237
same,Dropout Score,−0.4848
"BCL_00090_H_D55 (guide CCTGGTACCAGGAAGGCAATNGG; listed as DNA, chemistry not given here)",Enrichment Score,0.4651
same,Dropout Score,−0.5292
"BCL_00263_H_exon2 (guide GAAAAAAGCATCCAATCCCGNGG; listed as DNA, chemistry not given here)",Enrichment Score,0.6213
same,Dropout Score,−2.115
"BCL_00261_H_exon2 (guide CACAAACGGAAACAATGCAANGG; listed as DNA, chemistry not given here)",Enrichment Score,3.329
same,Dropout Score,−2.543
"BCL_00253_H_exon2 (guide CCCGTTGGGAGCTCCAGAAGNGG; listed as DNA, chemistry not given here)",Enrichment Score,1.205
same,Dropout Score,−1.968
